Measured values taken from publication PMC11110727, “Exploiting thiol-functionalized benzosiloxaboroles for achieving diverse substitution patterns – synthesis, characterization and biological evaluation of promising antibacterial agents” (RSC Medicinal Chemistry, 2024).
In brackets after ≈: the same amount, converted by molar mass.

Columns and labels:
[1] = tested on: Human normal lung fibroblasts MRC-5; test: MTT-based viability (cytotoxicity) assay; settings: MRC-5, MTT, 48 h
Description: To evaluate the cytotoxic effect of the tested compounds, an MTT-based assay was performed. […] Moreover, based on available IC50 and MIC (for standard and clinical S. aureus MRSA strains) values, the selectivity index (SI) was calculated for several compounds as the IC50/MIC ratio (Table 5).[60]
MRC-5 pd30 human fibroblasts (ECACC) were cultured in MEME, Minimum Essential Medium Eagle (Merck), supplemented with 10% fetal bovine serum (Merck), 2 mM L-glutamine, antibiotics (100 U mL^−1 penicillin, 100 μg mL^−1 streptomycin, Merck) and 1% non-essential amino acids (Merck). Cells were grown in 75 cm^2 cell culture flasks (Sarstedt), in a humidified atmosphere of CO2/air (5/95%) at 37 °C. MTT-based viability assay was conducted as described previously.[26] Optical densities were measured at 570 nm using a BioTek microplate reader. All measurements were carried out in three replicates and the results expressed as a percent of viable cells versus control cells. […] The selectivity index (SI) was calculated as [drawing 30] , in accordance with previously described protocols.[60]

C. albicans ATCC 90028 = test: Antifungal activity: MIC/MFC, disc-diffusion; assay type: cell-based, Candida albicans
Description: (§1) Direct antimicrobial activity was determined against the following standard strains: (1) Gram-positive cocci: methicillin-sensitive Staphylococcus aureus ATCC 6538P (MSSA), methicillin-resistant S. aureus subsp. aureus ATCC 43300 (MRSA), S. epidermidis ATCC 12228, Enterococcus faecium ATCC 6057, E. faecalis ATCC 29212, Bacillus subtilis ATCC 6633; (2) Gram-negative bacteria from Enterobacteriales order: Klebsiella pneumoniae ATCC 13883, Escherichia coli ATCC 25922, Enterobacter cloacae DSM 6234, Proteus mirabilis ATCC 12453, Serratia marcescens ATCC 13880; (3) Gram-negative non-fermentative rods: Acinetobacter baumannii ATCC 19606, Pseudomonas aeruginosa ATCC 27853, Stenotrophomonas maltophilia ATCC 12714, S. maltophilia ATCC 13637, Burkholderia cepacia ATCC 25416, Bordetella bronchiseptica ATCC 4617; (4) yeasts: Candida albicans ATCC 90028, C. krusei ATCC 6258, C. parapsilosis ATCC 22019, C. tropicalis (Castellani) Berkhout ATCC 750, C. tropicalis IBA 171, C. guilliermondii IBA 155, and Saccharomyces cerevisiae ATCC 9763. Moreover, 5 clinical strains of methicillin-resistant S. aureus were also included: NMI 664 K, NMI 1576 K, NMI 1712 K, NMI 1991 K, and NMI 2541 K. All strains were stored at −80 °C. Prior to testing, each bacterial strain was subcultured twice on tryptic soy agar TSA (bioMerieux) medium and yeast strains on Sabouraud dextrose agar (bioMerieux) for 24–48 h at 30 °C to ensure viability. The antimicrobial activity was evaluated as previously described[26] by the disc-diffusion method and the MIC determination assays according to the EUCAST (ref. [71] and [72]) and CLSI (ref. [53] and [73]) recommendations. Assessment of bactericidal (MBC) and fungicidal (MFC) activities was performed according to the CLSI recommendations.[54,74] The following reference agents were used: fluconazole (in the case of fungi), linezolid (for Gram-positive bacteria), and nitrofurantoin (for Gram-negative rods). The new benzosiloxaboroles were dissolved in DMSO (Sigma).

C. krusei ATCC 6258 = test: Antifungal activity: MIC/MFC, disc-diffusion; assay type: cell-based
Description: as §1, with “The following reference agents were used: fluconazole (in the case of fungi), linezolid (for Gram-positive bacteria), and nitrofurantoin (for Gram-negative rods).” left out

[2] = tested on: C. guilliermondii IBA 155; test: Antifungal activity: MIC/MFC, disc-diffusion; assay type: cell-based
Description: as §1

[3] = tested on: C. parapsilosis ATCC 22019; test: Antifungal activity: MIC/MFC, disc-diffusion; assay type: cell-based
Description: as §1

C. tropicalis ATCC 750 = test: Antifungal activity: MIC/MFC, disc-diffusion; assay type: cell-based
Description: as §1

C. tropicalis IBA 171 = test: Antifungal activity: MIC/MFC, disc-diffusion; assay type: cell-based
Description: as §1

S. cerevisiae ATCC 9763 = test: Antifungal activity: MIC/MFC, disc-diffusion; assay type: cell-based, Saccharomyces cerevisiae
Description: as §1

E. coli ATCC 25922 = test: Antibacterial activity: MIC/MBC, MIC with PAβN, disc-diffusion; assay type: cell-based, Escherichia coli; settings: E. coli ATCC 25922
Description: as §1, with “The following reference agents were used: fluconazole (in the case of fungi), linezolid (for Gram-positive bacteria), and nitrofurantoin (for Gram-negative rods).” left out
(§2) Considering that the MDR efflux pumps often contribute to Gram-negative rod resistance, the MIC values of studied agents, with or without the pump inhibitor, PAβN (20 μg mL^−1) (Sigma), were determined.[75] The MIC was determined using Mueller–Hinton II broth medium (MHB) (Becton Dickinson) by the broth microdilution method, according to the CLSI guideliness.[53] To minimize the influence of PAβN on the destabilization of bacterial cell covers, the tests were conducted in the presence of 1 mM MgSO4 (Sigma).[76] At least a 4-fold reduction in the MIC value after the addition of PAβN was considered significant.[56,77]

K. pneumoniae ATCC 13883 = test: as above; assay type: cell-based, Klebsiella pneumoniae; settings: K. pneumoniae ATCC 13883
Description: as §1, with “The following reference agents were used: fluconazole (in the case of fungi), linezolid (for Gram-positive bacteria), and nitrofurantoin (for Gram-negative rods).” left out
as §2

P. mirabilis ATCC 12453 = test: as above; assay type: cell-based, Proteus mirabilis; settings: P. mirabilis ATCC 12453
Description: as §1, with “The following reference agents were used: fluconazole (in the case of fungi), linezolid (for Gram-positive bacteria), and nitrofurantoin (for Gram-negative rods).” left out
as §2

E. cloacae DSM 6234 = test: as above; assay type: cell-based, Enterobacter cloacae; settings: E. cloacae DSM 6234
Description: as §1, with “The following reference agents were used: fluconazole (in the case of fungi), linezolid (for Gram-positive bacteria), and nitrofurantoin (for Gram-negative rods).” left out
as §2

S. marcescens ATCC 13880 = test: as above; assay type: cell-based, Serratia marcescens; settings: S. marcescens ATCC 13880
Description: as §1, with “The following reference agents were used: fluconazole (in the case of fungi), linezolid (for Gram-positive bacteria), and nitrofurantoin (for Gram-negative rods).” left out
as §2

A. baumannii ATCC 19606 = test: as above; assay type: cell-based, Acinetobacter baumannii; settings: A. baumannii ATCC 19606
Description: as §1, with “The following reference agents were used: fluconazole (in the case of fungi), linezolid (for Gram-positive bacteria), and nitrofurantoin (for Gram-negative rods).” left out
as §2

P. aeruginosa ATCC 27853 = test: as above; assay type: cell-based; settings: Pseudomonas aeruginosa, ATCC27853, P. aeruginosa ATCC 27853
Description: as §1, with “The following reference agents were used: fluconazole (in the case of fungi), linezolid (for Gram-positive bacteria), and nitrofurantoin (for Gram-negative rods).” left out
as §2

[4] = tested on: S. maltophilia ATCC 12714; test: as above; assay type: cell-based, Stenotrophomonas maltophilia; settings: Stenotrophomonas maltophilia, ATCC12714, S. maltophilia ATCC 12714
Description: as §1, with “The following reference agents were used: fluconazole (in the case of fungi), linezolid (for Gram-positive bacteria), and nitrofurantoin (for Gram-negative rods).” left out
as §2

[5] = tested on: S. maltophilia ATCC 13637; test: as above; assay type: cell-based, Stenotrophomonas maltophilia; settings: Stenotrophomonas maltophilia, ATCC13637, S. maltophilia ATCC 13637
Description: as §1, with “The following reference agents were used: fluconazole (in the case of fungi), linezolid (for Gram-positive bacteria), and nitrofurantoin (for Gram-negative rods).” left out
as §2

B. cepacia ATCC 25416 = test: Antibacterial activity: MIC/MBC, disc-diffusion; assay type: cell-based, Burkholderia cepacia; settings: B. cepacia ATCC 25416
Description: as §1, with “The following reference agents were used: fluconazole (in the case of fungi), linezolid (for Gram-positive bacteria), and nitrofurantoin (for Gram-negative rods).” left out
as §2

[6] = tested on: B. bronchiseptica ATCC 4617; test: Antibacterial activity: MIC/MBC, disc-diffusion; assay type: cell-based, Bordetella bronchiseptica; settings: Bordetella bronchiseptica, ATCC4617, B. bronchiseptica ATCC 4617
Description: as §1, with “The following reference agents were used: fluconazole (in the case of fungi), linezolid (for Gram-positive bacteria), and nitrofurantoin (for Gram-negative rods).” left out
as §2

[7] = (-) = zone not observed, paper discs 9 mm

N.N.[Cl][Pt][Cl] [Cisplatin, reference compound]
IC50 [1]: 1.9 µg/mL

OC(Cn1cncn1)(Cn1cncn1)c1ccc(F)cc1F [FL, fluconazole, reference compound]
diameter of inhibition zone (C. albicans ATCC 90028; C. albicans ATCC 90028, (-) = zone not observed, paper discs 9 mm): 43 mm | MIC (C. albicans ATCC 90028; Candida albicans, ATCC90028, read-out: MIC): 1 µg/mL (≈ 3.27 µM) | diameter of inhibition zone (C. krusei ATCC 6258; C. krusei ATCC 6258, (-) = zone not observed, paper discs 9 mm): 16 mm | MIC (C. krusei ATCC 6258; Pichia kudriavzevii, ATCC6258, read-out: MIC): 64 µg/mL (≈ 209 µM) | diameter of inhibition zone ([2]; C. guilliermondii IBA 155, (-) = zone not observed, paper discs 9 mm): 40 mm | MIC ([2]; Meyerozyma guilliermondii, IBA155, read-out: MIC): 0.75 µg/mL (≈ 2.45 µM) | diameter of inhibition zone ([3]; C. parapsilosis ATCC 22019, (-) = zone not observed, paper discs 9 mm): 32 mm | MIC ([3]; Lodderomyces parapsilosis, ATCC22019, read-out: MIC): 2 µg/mL (≈ 6.53 µM) | diameter of inhibition zone (C. tropicalis ATCC 750; C. tropicalis ATCC 750, (-) = zone not observed, paper discs 9 mm): 40 mm | MIC (C. tropicalis ATCC 750; Candida tropicalis, ATCC750, read-out: MIC): 0.38 µg/mL (≈ 1.24 µM) | diameter of inhibition zone (C. tropicalis IBA 171; C. tropicalis IBA 171, (-) = zone not observed, paper discs 9 mm): 39 mm | MIC (C. tropicalis IBA 171; Candida tropicalis, IBA171, read-out: MIC): 0.38 µg/mL (≈ 1.24 µM) | diameter of inhibition zone (S. cerevisiae ATCC 9763; S. cerevisiae ATCC 9763, (-) = zone not observed, paper discs 9 mm): 12 mm | MIC (S. cerevisiae ATCC 9763; Saccharomyces cerevisiae, ATCC9763, read-out: MIC): 16 µg/mL (≈ 52.2 µM)

O=C1CN(/N=C/c2ccc([N+](=O)[O-])o2)C(=O)N1 [NF, nitrofurantoin, reference compound]
diameter of inhibition zone (E. coli ATCC 25922; [7]): 24 mm | MBC (E. coli ATCC 25922; Escherichia coli, ATCC25922): 8 µg/mL (≈ 33.6 µM) | MIC (E. coli ATCC 25922; Escherichia coli, ATCC25922, read-out: MIC): 8 µg/mL (≈ 33.6 µM) | diameter of inhibition zone (K. pneumoniae ATCC 13883; [7]): 23 mm | MBC (K. pneumoniae ATCC 13883; Klebsiella pneumoniae, ATCC13883): 32 µg/mL (≈ 134 µM) | MIC (K. pneumoniae ATCC 13883; Klebsiella pneumoniae, ATCC13883, read-out: MIC): 32 µg/mL (≈ 134 µM) | diameter of inhibition zone (P. mirabilis ATCC 12453; [7]): 9 mm | MBC (P. mirabilis ATCC 12453; Proteus mirabilis, ATCC12453): > 128 µg/mL | MIC (P. mirabilis ATCC 12453; Proteus mirabilis, ATCC12453, read-out: MIC): 128 µg/mL (≈ 537 µM) | diameter of inhibition zone (E. cloacae DSM 6234; [7]): 17 mm | MBC (E. cloacae DSM 6234; Enterobacter cloacae, DSM6234): 32 µg/mL (≈ 134 µM) | MIC (E. cloacae DSM 6234; Enterobacter cloacae, DSM6234, read-out: MIC): 32 µg/mL (≈ 134 µM) | diameter of inhibition zone (S. marcescens ATCC 13880; [7]): 12 mm | MBC (S. marcescens ATCC 13880; Serratia marcescens, ATCC13880): > 128 µg/mL | MIC (S. marcescens ATCC 13880; Serratia marcescens, ATCC13880, read-out: MIC): 128 µg/mL (≈ 537 µM) | diameter of inhibition zone (A. baumannii ATCC 19606; [7]): 9 mm | MBC (A. baumannii ATCC 19606; Acinetobacter baumannii, ATCC19606): 128 µg/mL (≈ 537 µM) | MIC (A. baumannii ATCC 19606; Acinetobacter baumannii, ATCC19606, read-out: MIC): 64 µg/mL (≈ 269 µM) | MBC (P. aeruginosa ATCC 27853): > 128 µg/mL | MIC (P. aeruginosa ATCC 27853; read-out: MIC): > 128 µg/mL | MBC [4]: > 128 µg/mL | MIC ([4]; read-out: MIC): 128 µg/mL (≈ 537 µM) | MBC [5]: > 128 µg/mL | MIC ([5]; read-out: MIC): 128 µg/mL (≈ 537 µM) | diameter of inhibition zone (B. cepacia ATCC 25416; [7]): 12 mm | MBC (B. cepacia ATCC 25416; Burkholderia cepacia, ATCC25416): 32 µg/mL (≈ 134 µM) | MIC (B. cepacia ATCC 25416; Burkholderia cepacia, ATCC25416, read-out: MIC): 32 µg/mL (≈ 134 µM) | MBC [6]: 128 µg/mL (≈ 537 µM) | MIC ([6]; read-out: MIC): 64 µg/mL (≈ 269 µM)
